According to patent publication US20250073146A1, “MIXED SURFACTANT FOR PREPARING TRANSPARENT MICROEMULSION AND FINE NANOEMULSION, AND COSMETIC COMPOSITION PREPARED USING THE SAME” (BIOBEAUTECH Co., Ltd., priority 2023, published 2025):

Assay: HLB of surfactant
Type: physicochemical

| Substance | average HLB |
| --- | --- |
| polyglyceryl-10 oleate | 12.5 |
| sucrose distearate | 6.3 |
